Test results from PubChem BioAssay (NCI).
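Method: 48-hour compound exposure of cells in 96-well plates, five concentrations, linear interpolation of endpoints. TGI: total growth inhibition.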

How the values were obtained:
Assay in all cases: growth of human tumour cells (NCI), 48 h
[1] = test system: NCI-H460 lung
[2] = test system: NCI-H226 lung
[3] = test system: HCT-15 colon
[4] = test system: EKVX NSCLC
[5] = test system: SK-MEL-28 melanoma
[6] = test system: M14 melanoma
[7] = test system: CCRF-CEM leukemia
[8] = test system: RXF-631 renal
[9] = test system: COLO 205 colon
[10] = test system: SF-295 CNS
[11] = test system: IGROV1 ovarian
[12] = test system: OVCAR-8 ovarian
[13] = test system: SNB-19 CNS
[14] = test system: LXFL 529 NSCLC
[15] = test system: ACHN renal
[16] = test system: HOP-92 NSCLC
[17] = test system: U251 CNS
[18] = test system: UACC-62 melanoma
[19] = test system: A498 renal
[20] = test system: SF-268 CNS
[21] = test system: SF-539 CNS
[22] = test system: SW-620 colon
[23] = test system: SR leukemia
[24] = test system: RPMI-8226 leukemia
[25] = test system: SK-MEL-5 melanoma
[26] = test system: A549 NSCLC
[27] = test system: KM20L2 colon
[28] = test system: SK-MEL-2 melanoma
[29] = test system: 786-0 renal
[30] = test system: DLD-1 colon
[31] = test system: DMS 114 small cell lung
[32] = test system: MOLT-4 leukemia
[33] = test system: LOX IMVI melanoma
[34] = test system: HOP-62 NSCLC
[35] = test system: K-562 leukemia
[36] = test system: OVCAR-3 ovarian
[37] = test system: M19-MEL melanoma
[38] = test system: TK-10 renal
[39] = test system: SK-OV-3 ovarian
[40] = test system: CAKI-1 renal
[41] = test system: XF 498 CNS
[42] = test system: DMS 273 small cell lung
[43] = test system: SNB-75 CNS
[44] = test system: UACC-257 melanoma
[45] = test system: KM12 colon
[46] = test system: NCI-H23 lung
[47] = test system: HT29 colon
[48] = test system: NCI-H522 lung
[49] = test system: UO-31 renal
[50] = test system: RXF 393 renal
[51] = test system: OVCAR-4 ovarian
[52] = test system: HCT-116 colon
[53] = test system: SN12C renal
[54] = test system: HOP-18 NSCLC
[55] = test system: OVCAR-5 ovarian
[56] = test system: HCC-2998 colon
[57] = test system: SNB-78 CNS
[58] = test system: MALME-3M melanoma
[59] = test system: HL-60(TB) leukemia

## O=[N+]([O-])c1ccc(N=Nc2c(O)[nH]c3ccc([N+](=O)[O-])cc23)cc1
[1]
  TGI: 26.4 µM
[2]
  TGI: 7 µM
[3]
  TGI: > 100 µM
[4]
  TGI: > 100 µM
[5]
  TGI: 47.4 µM
[6]
  TGI: 38 µM
[7]
  TGI: > 100 µM
[8]
  TGI: 62.7 µM
[9]
  TGI: > 100 µM
[10]
  TGI: 27.5 µM
[11]
  TGI: > 100 µM
[12]
  TGI: 35 µM
[13]
  TGI: 40.5 µM
[14]
  TGI: 26.4 µM
[15]
  TGI: 76.4 µM
[16]
  TGI: 25.6 µM
[17]
  TGI: 41.7 µM
[18]
  TGI: 36.5 µM
[19]
  TGI: > 100 µM
[20]
  TGI: 38 µM
[21]
  TGI: 33.4 µM
[22]
  TGI: 29.5 µM
[23]
  TGI: > 100 µM
[24]
  TGI: 36.2 µM
[25]
  TGI: 26.7 µM
[26]
  TGI: 32.4 µM
[27]
  TGI: 63.7 µM
[28]
  TGI: > 100 µM
[29]
  TGI: 17 µM
[30]
  TGI: > 100 µM
[31]
  TGI: 86.3 µM
[32]
  TGI: > 100 µM
[33]
  TGI: > 100 µM
[34]
  TGI: 38.3 µM
[35]
  TGI: > 100 µM
[36]
  TGI: 42 µM
[37]
  TGI: 36.9 µM
[38]
  TGI: 54.7 µM
[39]
  TGI: 58.5 µM
[40]
  TGI: > 100 µM
[41]
  TGI: 32.3 µM
[42]
  TGI: 33.6 µM
[43]
  TGI: > 100 µM
[44]
  TGI: 59.7 µM
[45]
  TGI: 30.8 µM
[46]
  TGI: 44.9 µM
[47]
  TGI: 51.8 µM
[48]
  TGI: 50.4 µM
[49]
  TGI: 59.8 µM
[50]
  TGI: 36.5 µM
[51]
  TGI: 38.6 µM

## COc1ccc([C@H]2CC(=O)N3CCCC3N2)cc1 (some centres not stated)
[1]
  TGI: > 100 µM
[2]
  TGI: > 100 µM
[52]
  TGI: > 100 µM
[3]
  TGI: > 100 µM
[4]
  TGI: > 100 µM
[5]
  TGI: > 100 µM
[6]
  TGI: > 100 µM
[7]
  TGI: > 100 µM
[9]
  TGI: > 100 µM
[10]
  TGI: > 100 µM
[11]
  TGI: > 100 µM
[53]
  TGI: > 100 µM
[12]
  TGI: > 100 µM
[54]
  TGI: > 100 µM
[13]
  TGI: > 100 µM
[14]
  TGI: > 100 µM
[15]
  TGI: > 100 µM
[16]
  TGI: > 100 µM
[55]
  TGI: > 100 µM
[17]
  TGI: > 100 µM
[18]
  TGI: > 100 µM
[19]
  TGI: > 100 µM
[20]
  TGI: > 100 µM
[21]
  TGI: > 100 µM
[22]
  TGI: > 100 µM
[23]
  TGI: > 100 µM
[24]
  TGI: > 100 µM
[56]
  TGI: > 100 µM
[25]
  TGI: > 100 µM
[57]
  TGI: > 100 µM
[26]
  TGI: > 100 µM
[27]
  TGI: > 100 µM
[28]
  TGI: > 100 µM
[29]
  TGI: > 100 µM
[30]
  TGI: > 100 µM
[31]
  TGI: > 100 µM
[58]
  TGI: > 100 µM
[32]
  TGI: > 100 µM
[34]
  TGI: > 100 µM
[35]
  TGI: > 100 µM
[37]
  TGI: > 100 µM
[38]
  TGI: > 100 µM
[39]
  TGI: > 100 µM
[59]
  TGI: > 100 µM
[40]
  TGI: > 100 µM
[41]
  TGI: > 100 µM
[42]
  TGI: > 100 µM
[43]
  TGI: > 100 µM
[44]
  TGI: > 100 µM
[45]
  TGI: > 100 µM
[46]
  TGI: > 100 µM
[47]
  TGI: > 100 µM
[48]
  TGI: > 100 µM
[49]
  TGI: > 100 µM
[50]
  TGI: > 100 µM
[51]
  TGI: > 100 µM

## CCc1ccccc1NC(=O)C(=O)C(C(=O)c1ccc(OC)cc1)c1ccc(OC)cc1 (configuration not stated)
[1]
  TGI: > 100 µM
[2]
  TGI: > 100 µM
[52]
  TGI: > 100 µM
[3]
  TGI: > 100 µM
[4]
  TGI: > 100 µM
[6]
  TGI: > 100 µM
[7]
  TGI: > 100 µM
[8]
  TGI: > 100 µM
[9]
  TGI: > 100 µM
[10]
  TGI: > 100 µM
[11]
  TGI: > 100 µM
[53]
  TGI: > 100 µM
[12]
  TGI: > 100 µM
[54]
  TGI: > 100 µM
[13]
  TGI: > 100 µM
[14]
  TGI: > 100 µM
[15]
  TGI: > 100 µM
[55]
  TGI: > 100 µM
[17]
  TGI: > 100 µM
[18]
  TGI: > 100 µM
[19]
  TGI: > 100 µM
[20]
  TGI: > 100 µM
[21]
  TGI: > 100 µM
[22]
  TGI: > 100 µM
[24]
  TGI: > 100 µM
[56]
  TGI: > 100 µM
[25]
  TGI: > 100 µM
[57]
  TGI: > 100 µM
[26]
  TGI: > 100 µM
[27]
  TGI: > 100 µM
[28]
  TGI: > 100 µM
[29]
  TGI: > 100 µM
[30]
  TGI: > 100 µM
[31]
  TGI: > 100 µM
[58]
  TGI: > 100 µM
[32]
  TGI: > 100 µM
[33]
  TGI: > 100 µM
[34]
  TGI: > 100 µM
[35]
  TGI: > 100 µM
[36]
  TGI: > 100 µM
[38]
  TGI: > 100 µM
[39]
  TGI: > 100 µM
[59]
  TGI: > 100 µM
[40]
  TGI: > 100 µM
[41]
  TGI: > 100 µM
[42]
  TGI: > 100 µM
[44]
  TGI: > 100 µM
[45]
  TGI: > 100 µM
[46]
  TGI: > 100 µM
[47]
  TGI: > 100 µM
[48]
  TGI: > 100 µM
[49]
  TGI: > 100 µM
[51]
  TGI: > 100 µM

## CC(=O)N(CCN)CCN
[1]
  TGI: > 10 µM
[52]
  TGI: > 10 µM
[3]
  TGI: > 100 µM
[4]
  TGI: > 100 µM
[5]
  TGI: > 10 µM
[6]
  TGI: > 10 µM
[7]
  TGI: > 10 µM
[8]
  TGI: > 10 µM
[9]
  TGI: > 10 µM
[10]
  TGI: > 10 µM
[53]
  TGI: > 10 µM
[12]
  TGI: > 10 µM
[13]
  TGI: > 10 µM
[14]
  TGI: > 10 µM
[15]
  TGI: > 100 µM
[16]
  TGI: > 10 µM
[17]
  TGI: > 10 µM
[18]
  TGI: > 100 µM
[19]
  TGI: > 10 µM
[20]
  TGI: > 100 µM
[22]
  TGI: > 10 µM
[23]
  TGI: > 10 µM
[24]
  TGI: > 10 µM
[56]
  TGI: > 10 µM
[25]
  TGI: > 100 µM
[57]
  TGI: > 10 µM
[26]
  TGI: > 10 µM
[27]
  TGI: > 10 µM
[28]
  TGI: > 100 µM
[29]
  TGI: > 10 µM
[30]
  TGI: > 100 µM
[31]
  TGI: > 10 µM
[32]
  TGI: > 10 µM
[33]
  TGI: > 10 µM
[34]
  TGI: > 10 µM
[35]
  TGI: > 10 µM
[36]
  TGI: > 10 µM
[37]
  TGI: > 10 µM
[38]
  TGI: > 10 µM
[39]
  TGI: > 100 µM
[59]
  TGI: > 10 µM
[40]
  TGI: > 10 µM
[41]
  TGI: > 100 µM
[42]
  TGI: > 10 µM
[43]
  TGI: > 100 µM
[44]
  TGI: > 10 µM
[45]
  TGI: > 10 µM
[46]
  TGI: > 10 µM
[48]
  TGI: > 10 µM
[49]
  TGI: > 10 µM
[50]
  TGI: > 10 µM
[51]
  TGI: > 10 µM
